According to patent US10941152B2, “Pyrazole compounds as modulators of FSHR and uses thereof” (TOCOPHERX, INC., priority 2014, dated 2021):
pEC50: −log10 of the molar value.

Tests used:
FSHR = biological target: T1, FSHR (Homo sapiens, UniProt P23945); test: EC50 of cyclic AMP production in CHO FSHR cells + EC20 FSH (Assay A); format: cell-based; settings: cyclic AMP production in CHO FSHR cells + EC20 FSH (0.265 pM), HTRF
T1 construct: expressed in transfected cells; host or cells: CHO (Cho-FSHR-LUC-1-1-43)
T1 sequence (P23945 18-695): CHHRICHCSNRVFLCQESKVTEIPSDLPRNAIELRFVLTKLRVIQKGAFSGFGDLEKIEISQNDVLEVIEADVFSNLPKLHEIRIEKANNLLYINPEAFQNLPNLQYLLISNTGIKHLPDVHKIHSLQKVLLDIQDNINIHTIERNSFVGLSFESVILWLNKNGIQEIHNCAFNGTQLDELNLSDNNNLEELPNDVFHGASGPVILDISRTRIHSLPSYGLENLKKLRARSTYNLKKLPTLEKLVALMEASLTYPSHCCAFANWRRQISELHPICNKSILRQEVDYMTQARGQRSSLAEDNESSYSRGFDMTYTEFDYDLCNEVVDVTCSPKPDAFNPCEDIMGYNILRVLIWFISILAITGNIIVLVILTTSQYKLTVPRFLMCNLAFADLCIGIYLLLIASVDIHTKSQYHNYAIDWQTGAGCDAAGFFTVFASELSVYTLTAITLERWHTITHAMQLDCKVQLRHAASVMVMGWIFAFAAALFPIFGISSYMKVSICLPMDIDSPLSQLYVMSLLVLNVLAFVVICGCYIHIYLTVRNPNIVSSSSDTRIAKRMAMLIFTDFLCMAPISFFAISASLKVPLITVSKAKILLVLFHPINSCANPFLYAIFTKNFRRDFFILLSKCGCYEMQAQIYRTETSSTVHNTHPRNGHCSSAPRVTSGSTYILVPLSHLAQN
Method in brief: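 cAMP was detected by HTRF as the 665/620 nm ratio. The CHO-FSHR cells had first been exposed for 1 h at 37° C to test compound together with 0.265 pM FSH (EC20) and 200 μM IBMX. Responses are given as percent of the FSH standard maximum.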

[1] = biological target: T2, follicle-stimulating hormone (FSH) receptor (Rattus norvegicus, UniProt P20395); test: Rat granulosa EC50 FSH (Assay B); format: cell-based
T2 construct: endogenous in cells; host or cells: rat granulosa cells
T2 sequence (P20395 18-692): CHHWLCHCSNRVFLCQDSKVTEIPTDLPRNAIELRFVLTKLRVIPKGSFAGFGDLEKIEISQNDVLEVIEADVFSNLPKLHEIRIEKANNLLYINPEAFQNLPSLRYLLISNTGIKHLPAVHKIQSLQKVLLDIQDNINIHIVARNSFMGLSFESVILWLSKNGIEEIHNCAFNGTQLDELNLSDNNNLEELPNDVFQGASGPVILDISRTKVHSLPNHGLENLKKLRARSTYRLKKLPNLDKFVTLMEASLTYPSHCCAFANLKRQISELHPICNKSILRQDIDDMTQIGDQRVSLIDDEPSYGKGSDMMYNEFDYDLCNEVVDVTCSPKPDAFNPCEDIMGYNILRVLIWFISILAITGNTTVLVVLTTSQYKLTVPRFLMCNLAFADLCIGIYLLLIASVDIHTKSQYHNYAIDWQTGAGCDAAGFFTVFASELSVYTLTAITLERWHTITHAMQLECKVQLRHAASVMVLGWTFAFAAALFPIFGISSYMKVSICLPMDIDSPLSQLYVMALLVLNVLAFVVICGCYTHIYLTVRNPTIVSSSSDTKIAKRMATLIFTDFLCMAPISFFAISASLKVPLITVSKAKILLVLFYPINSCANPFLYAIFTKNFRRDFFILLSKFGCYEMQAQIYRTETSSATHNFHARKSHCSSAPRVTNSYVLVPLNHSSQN
Description: Example 25. Rat granulosa EC50 FSH (Assay B)
The assay was performed pursuant to the teaching of Yanofsky et al. (2006) Allosteric activation of the follicle-stimulating hormone (FSH) receptor by selective, nonpeptide agonists (JBC 281(19): 13226-13233, which is incorporated by reference in the disclosure of the invention).

Row | pEC50 (FSHR) | pEC50 [1] | Structure (SMILES)
1 | 7.00 to 8.00 | < 6.30 | COc1cc2c(cc1-c1ccn(C)n1)-c1c(c(C(=O)N(C)C(C)(C)C#N)nn1-c1cc(F)cc(F)c1)CO2 [Compound 106, N-(2-cyanopropan-2-yl)-1-(3,5-difluorophenyl)-7-methoxy-N-methyl-8-(1-methyl-1H-pyrazol-3-yl)-1,4-dihydrochromeno[4,3-c]pyrazole-3-carboxamide]
2 | > 8.00 | > 8.00 | COc1cc2c(cc1-c1cncc(C(=O)O)c1)-c1c(c(C(=O)N3CCOCC3(C)C)nn1-c1cc(Cl)cc(Cl)c1)CO2 [Compound 178, 5-(1-(3,5-dichlorophenyl)-3-(3,3-dimethylmorpholine-4-carbonyl)-7-methoxy-1,4-dihydrochromeno[4,3-c]pyrazol-8-yl)nicotinic acid]
3 | 7.00 to 8.00 | < 6.30 | COc1cc2c(cc1-c1cncc(C(N)=O)c1)-c1c(c(C(=O)N(C)C(C)(C)C(N)=O)nn1-c1cc(F)cc(F)c1)CO2 [Compound 104, N-(1-amino-2-methyl-1-oxopropan-2-yl)-8-(5-carbamoylpyridin-3-yl)-1-(3,5-difluorophenyl)-7-methoxy-N-methyl-1,4-dihydrochromeno[4,3-c]pyrazole-3-carboxamide]
4 | > 8.00 | 7.00 to 8.00 | COc1cc2c(cc1-c1cccc(F)c1C#N)-c1c(c(C(=O)N(C)C(C)(C)C)nn1-c1cc(Cl)cc(Cl)c1)CO2 [Compound 25, N-tert-butyl-8-(2-cyano-3-fluorophenyl)-1-(3,5-dichlorophenyl)-7-methoxy-N-methyl-1,4-dihydrochromeno[4,3-c]pyrazole-3-carboxamide]
5 | 7.00 to 8.00 | < 6.30 | COc1cc(OC)cc(-n2nc(C(=O)N(C)C(C)(C)C)c3c2-c2cc(-c4ccn(C)n4)c(OC)cc2OC3)c1 [Compound 37, N-tert-butyl-1-(3,5-dimethoxyphenyl)-7-methoxy-N-methyl-8-(1-methyl-1H-pyrazol-3-yl)-1,4-dihydrochromeno[4,3-c]pyrazole-3-carboxamide]
6 | > 8.00 | 6.30 to 7.00 | COc1cc(Cl)cc(-n2nc(C(=O)N3CCOCC3(C)C)c3c2-c2cc(-c4cnn(CC(=O)O)c4)c(OC)cc2OC3)c1 [Compound 86, 2-(4-(1-(3-chloro-5-methoxyphenyl)-3-(3,3-dimethylmorpholine-4-carbonyl)-7-methoxy-1,4-dihydrochromeno[4,3-c]pyrazol-8-yl)-1H-pyrazol-1-yl)acetic acid]
7 | 7.00 to 8.00 | 7.00 to 8.00 | COCC1(CC(F)(F)F)CCCN1C(=O)c1nn(-c2ccsc2)c2c1COc1cc(OC)c(-c3ccn(C)n3)cc1-2 (stereo not shown) [Compound 131, (7-methoxy-8-(1-methyl-1H-pyrazol-3-yl)-1-(thiophen-3-yl)-1,4-dihydrochromeno[4,3-c]pyrazol-3-yl)(2-(methoxymethyl)-2-(2,2,2-trifluoroethyl)pyrrolidin-1-yl)methanone]

The next lines start with the compound.

Row | Structure (SMILES) | pEC50 (FSHR) | pEC50 [1]
8 | COc1cc(Cl)cc(-n2nc(C(=O)N3CCOCC3(C)C)c3c2-c2cc(-c4cncc(C#N)c4)c(OC)cc2OC3)c1 [Compound 34, 5-(1-(3-chloro-5-methoxyphenyl)-3-(3,3-dimethylmorpholine-4-carbonyl)-7-methoxy-1,4-dihydrochromeno[4,3-c]pyrazol-8-yl)nicotinonitrile] | > 8.00 | 7.00 to 8.00
9 | [2H]C([2H])([2H])Oc1cc(Cl)cc(-n2nc(C(=O)N(C)C(C)(C)C)c3c2-c2cc(-c4cncc(C(N)=O)c4)c(OC([2H])([2H])[2H])cc2OC3)c1 [Compound 158] | > 8.00 | 7.00 to 8.00
10 | COc1cc2c(cc1-c1cc(C(N)=O)ccn1)-c1c(c(C(=O)N(C)C(C)(C)C)nn1-c1cc(Cl)cc(Cl)c1)CO2 [Compound 113, N-tert-butyl-8-(4-carbamoylpyridin-2-yl)-1-(3,5-dichlorophenyl)-7-methoxy-N-methyl-1,4-dihydrochromeno[4,3-c]pyrazole-3-carboxamide] | > 8.00 | 7.00 to 8.00
11 | COc1cc(Cl)cc(-n2nc(C(=O)N3CCOCC3(C)C)c3c2-c2cc(-c4cncc(C(N)=O)c4)c(OC)cc2OC3)c1 [Compound 157] | > 8.00 | > 8.00
12 | COc1cc(OC)cc(-n2nc(C(=O)N3CC[S+]([O-])CC3(C)C)c3c2-c2cc(-c4ccccn4)c(OC)cc2OC3)c1 (stereo not shown) [Compound 41, (1-(3,5-dimethoxyphenyl)-7-methoxy-8-(pyridin-2-yl)-1,4-dihydrochromeno[4,3-c]pyrazol-3-yl)(S-oxo-3,3-dimethylthiomorpholino)methanone] | 7.00 to 8.00 | 6.30 to 7.00
13 | COc1cc2c(cc1-c1c(C)nn(CC(=O)O)c1C)-c1c(c(C(=O)N(C)C(C)(C)C)nn1-c1cc(Cl)cc(Cl)c1)CO2 [Compound 137, 2-(4-(3-(tert-butyl(methyl)carbamoyl)-1-(3,5-dichlorophenyl)-7-methoxy-1,4-dihydrochromeno[4,3-c]pyrazol-8-yl)-3,5-dimethyl-1H-pyrazol-1-yl)acetic acid] | > 8.00 | 6.30 to 7.00
14 | COc1cc(F)cc(-n2nc(C(=O)N(C)C(C)(C)C)c3c2-c2cc(-c4ccn(C)n4)c(OC)cc2OC3)c1 [Compound 52, N-tert-butyl-1-(3-fluoro-5-methoxyphenyl)-7-methoxy-N-methyl-8-(1-methyl-1H-pyrazol-3-yl)-1,4-dihydrochromeno[4,3-c]pyrazole-3-carboxamide] | 7.00 to 8.00 | 6.30 to 7.00
